Positions of bridges follow the written chain, without caps; N, C: chain ends. Non-standard residues stand in square brackets, D forms with d. Residues, ends and D or L forms follow the SMILES beside them. Hyp = O=C(O)[C@@H]1C[C@@H](O)CN1; R8 = C=CCCCCCC[C@@](C)(N)C(=O)O; hLeu = CC(C)CC[C@H](N)C(=O)O; S5 = C=CCCC[C@](C)(N)C(=O)O; AEA = NCCOCC(=O)O
How the values were obtained:
[1] = system: HCT-116 subcutaneous xenograft; experiment: Subcutaneous HCT-116 xenograft model; assay type: in vivo, BALB/c nude mice
Description: (§1) Four-week-old male BALB/c nude mice (15-20 g) were used to establish subcutaneous and orthotopic xenograft models. A total of 5 × 10^6 HCT-116 cells were subcutaneously inoculated into the right flanks of the mice. Tumor volume was calculated using the following formula: V = (L × W^2)/2, where L is the length and W is the width of the tumor nodules measured with a vernier caliper. […] Drugs were intravenously injected into the mice every 2 days for 2 weeks. In addition, the model of orthotopic CRC xenografts was established. Briefly, mice were anesthetized after fasting for 12 h. Subsequently, the distal anal and rectal mucosa were exposed, and transanal injection of HCT-116 cells (5 × 10^6) was performed using a 30 G sterile needle. The injection was given directly into the rectal mucosa. Tumor growth was investigated, and once the tumors reached ~0.5 cm in size, the mice were randomly divided into two groups. The mice were treated every other day for 2 weeks with tail vein injections of either vehicle (saline) or sPMI-HIF2-1 (2 mg/kg). Body weight was measured before saline or drug injection. All mice were euthanized on day 14 following drug treatment, and the tumors were isolated, photographed, weighed, and measured.

[2] = system: HCT-116 orthotopic (rectal mucosa) xenograft; experiment: Orthotopic CRC xenograft model; assay type: in vivo, BALB/c nude mice
Description: as §1

[3] = system: MDM2 and MDMX in HCT116 cells; experiment: Western blot of MDM2 and MDMX protein levels; assay type: cell-based, human
Description: HCT116, MCF-7, or other cells were seeded in six-well plates (4 × 10^5 cells/well) and treated with PROTACs at the indicated concentrations for 24 h. The cells were lysed in RIPA lysis buffer. The protein concentrations were measured using the BCA method and equal amounts of each sample were separated by SDS-PAGE, followed by transfer onto filter membranes. Then, the membranes were blocked and incubated with primary antibodies (Abcam, UK) at 4 °C overnight, followed by incubation with the secondary antibodies. The protein bands were identified using a ChemiDoc MP Imaging System (Bio-Rad, USA).

[4] = 10 mg/kg i.v. tail vein every other day for 2 weeks, tumor volume

Compound: CC(=O)N[C@H](C(=O)N[C@@H](CO)C(=O)N[C@@H](Cc1ccccc1)C(=O)N[C@]1(C)CCCCCCC=CCCC[C@@](C)(C(=O)NCCOCC(=O)N[C@@H](CC(C)C)C(=O)N[C@@H](C)C(=O)N2C[C@H](O)C[C@H]2C(=O)N[C@@H](Cc2ccc(O)cc2)C(=O)N[C@@H](CCC(C)C)C(=O)N2CCC[C@H]2C(N)=O)NC(=O)[C@H](CC(C)C)NC(=O)[C@H](CC(C)C)NC(=O)[C@H](C)NC(=O)[C@H](Cc2c[nH]c3ccccc23)NC(=O)[C@H](Cc2ccc(O)cc2)NC(=O)[C@H](CCC(=O)O)NC1=O)[C@@H](C)O [SPMI-HIF2-1] (Ac-TSF[R8]EYWALL[S5][AEA]LA[Hyp]Y[hLeu]P-NH2; staple 4-11)
- body weight ([1]; 10 mg/kg i.v. every other day for 2 weeks): no obvious changes in body weight
- inhibition of tumor growth, enhanced compared to the 50 mg/kg PMI-HIF1-1 group [1, 4]: 3 fold
- inhibition of tumor growth, enhanced compared to the control group [1, 4]: 5 fold
- body weight ([2]; 2 mg/kg i.v. every 2 days until the 13th day, compared to saline-treated controls): no obvious change in body weight
- reduction in tumor weight compared to the control group ([2]; 2 mg/kg i.v. tail vein every 2 days until the 13th day, n = 5 mice/group): 77%
- turning point of atypical degradation of MDM2 and MDMX [3]: approximately 20 μM

Source: article PMC9516243, “Design of stapled peptide-based PROTACs for MDM2/MDMX atypical degradation and tumor suppression” (Theranostics, 2022)
